Results reported in US8852554B2, “Radiolabelled PDE10 ligands” (Janssen Pharmaceutica NV, priority 2009, dated 2014).
Values joined by “and” are separate entries in the source; they are usually repeats but may differ in a detail not shown here. Identical values can stand only once.

Tests used:
[1] = Biodistribution studies of the 18F tracers in rats; assay type: in vivo, male Wistar rats; details: rat, i.v.
Experimental: Biodistribution studies were carried out in healthy male Wister rats (body weight 200-500 g) at 2 min, 30 min and 60 min post injection (p.i.) (n=3/time point). For |^18F|B-4 only the 2 min and 30 min time points were studied. […] Blood and major organs were collected in tared tubes and weighed. The radioactivity in blood, organs and other body parts was measured using an automated gamma counter. The distribution of radioactivity in different parts of the body at different time points p.i. of the tracer was calculated and expressed as percentage of injected dose (% ID), and as percentage of injected dose per gram tissue (% ID/g) for the selected organs. % ID is calculated as cpm in organ/total cpm recovered. For calculation of total radioactivity in blood, blood mass was assumed to be 7% of the body mass.

[2] = target: T1, PDE10A (Rattus norvegicus, UniProt Q9QYJ6); experiment: MicroPET imaging studies; assay type: in vivo, male Wistar rats
T1 construct: from tissue; host or cells: brain (striatum) of living male Wistar rats, in vivo microPET
T1 sequence (Q9QYJ6 1-794): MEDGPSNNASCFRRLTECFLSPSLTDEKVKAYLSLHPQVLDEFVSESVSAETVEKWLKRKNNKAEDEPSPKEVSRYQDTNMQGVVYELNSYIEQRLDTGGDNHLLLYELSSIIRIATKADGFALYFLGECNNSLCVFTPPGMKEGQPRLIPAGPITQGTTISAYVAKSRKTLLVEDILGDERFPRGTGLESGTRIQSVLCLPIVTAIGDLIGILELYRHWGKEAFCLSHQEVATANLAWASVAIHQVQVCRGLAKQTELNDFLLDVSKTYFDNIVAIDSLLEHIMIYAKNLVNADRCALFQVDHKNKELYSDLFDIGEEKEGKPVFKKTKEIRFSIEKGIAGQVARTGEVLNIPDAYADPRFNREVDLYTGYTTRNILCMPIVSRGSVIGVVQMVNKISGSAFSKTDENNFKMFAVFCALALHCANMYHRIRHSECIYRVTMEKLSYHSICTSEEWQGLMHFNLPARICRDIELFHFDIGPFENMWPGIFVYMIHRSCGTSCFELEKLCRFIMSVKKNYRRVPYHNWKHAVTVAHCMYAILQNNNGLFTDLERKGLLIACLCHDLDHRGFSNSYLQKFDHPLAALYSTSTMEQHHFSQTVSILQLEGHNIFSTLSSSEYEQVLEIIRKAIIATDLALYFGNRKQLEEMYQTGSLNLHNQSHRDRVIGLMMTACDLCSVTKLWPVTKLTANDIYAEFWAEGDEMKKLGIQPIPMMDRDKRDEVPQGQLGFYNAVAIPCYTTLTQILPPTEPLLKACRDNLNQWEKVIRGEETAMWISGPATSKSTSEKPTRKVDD
Experimental: Imaging experiments were performed on a Focus™ 220 microPET scanner (Concorde Microsystems, Knoxville, Tenn., USA) using male Wistar rats with body weight varying between 300 and 600 g. […] Dynamic scans of 120 min were acquired in list mode. After reconstruction of the images, they were semi-automatically co-registered with a [^11C]raclopride template of the rat brain, and volumes of interest (VOIs) were generated for different anatomical brain structures (striatum, cerebral cortex and cerebellum) from which time-activity curves (TAC) were constructed for each individual image, using PMOD software (PMOD Technologies Ltd.). Normalization for body weight of the animal and injected dose was done. The radioactivity concentration in the different brain regions was expressed as SUV (standardized uptake value) as a function of time in seconds post injection of the radiotracer. The parametric binding potential (BP) values were calculated for all acquired images by using a simplified reference tissue model where the TAC of the cerebellum was used as input TAC for non-specific binding, using the same software (PMOD).
The radioactivity concentration in the different brain regions was expressed as SUV value as a function of time p.i. of the radiotracer by normalization for body weight of the animal and injected dose.

SMILES: COc1ccc(COc2ccc(-c3nn(CC[18F])cc3-c3ccncc3)cc2)nc1 [[^18F]B-4]
- total initial brain uptake ([1]; 2 min p.i.): 0.40 % ID
- % ID in the urinary system ([1]; 30 min p.i.): ~2.5 % ID
- % ID, Blood ([1]; 30 min p.i.): 3.35 ± 0.5 % ID
- % ID, Carcass ([1]; 30 min p.i.): 26.15 ± 1.2 % ID
- % ID, Cerebellum ([1]; 30 min p.i.): 0.028 ± 0.002 % ID
- % ID, Cerebrum total ([1]; 30 min p.i.): 0.208 ± 0.027 % ID
- % ID, Cortex ([1]; 30 min p.i.): 0.022 ± 0.002 % ID
- % ID, Heart ([1]; 30 min p.i.): 0.28 ± 0.1 % ID
- % ID, Hippocampus ([1]; 30 min p.i.): 0.004 ± 0.000 % ID
- % ID, Intestines ([1]; 30 min p.i.): 12 % ID and 11.98 ± 1.9 % ID
- % ID, Kidneys ([1]; 30 min p.i.): 1.71 ± 0.3 % ID
- % ID, Liver ([1]; 30 min p.i.): 47 % ID and 47.40 ± 3.5 % ID
- % ID, Lungs ([1]; 30 min p.i.): 0.35 ± 0.1 % ID
- % ID, Rest of cerebrum ([1]; 30 min p.i.): 0.162 ± 0.030 % ID
- % ID, Spleen + Pancreas ([1]; 30 min p.i.): 0.56 ± 0.1 % ID
- % ID, Stomach ([1]; 30 min p.i.): 8 % ID and 8.08 ± 3.7 % ID
- % ID, Striatum ([1]; 30 min p.i.): 0.019 % ID and 0.019 ± 0.003 % ID
- % ID, Urine ([1]; 30 min p.i.): 0.75 ± 0.1 % ID
- % ID/g normalized for body weight, Blood ([1]; 30 min p.i.): 0.05 ± 0.01 % ID/g × body wt. in kg
- % ID/g normalized for body weight, Cerebellum ([1]; 30 min p.i.): 0.029 ± 0.00 % ID/g × body wt. in kg
- % ID/g normalized for body weight, Cerebrum + Cerebellum ([1]; 30 min p.i.): 0.04 ± 0.00 % ID/g × body wt. in kg
- % ID/g normalized for body weight, Cerebrum total ([1]; 30 min p.i.): 0.043 ± 0.00 % ID/g × body wt. in kg
- % ID/g normalized for body weight, Cortex ([1]; 30 min p.i.): 0.040 ± 0.01 % ID/g × body wt. in kg
- % ID/g normalized for body weight, Heart ([1]; 30 min p.i.): 0.07 ± 0.01 % ID/g × body wt. in kg
- % ID/g normalized for body weight, Hippocampus ([1]; 30 min p.i.): 0.029 ± 0.00 % ID/g × body wt. in kg
- % ID/g normalized for body weight, Kidneys ([1]; 30 min p.i.): 0.19 ± 0.03 % ID/g × body wt. in kg
- % ID/g normalized for body weight, Liver ([1]; 30 min p.i.): 1.05 ± 0.03 % ID/g × body wt. in kg
- % ID/g normalized for body weight, Lungs ([1]; 30 min p.i.): 0.07 ± 0.00 % ID/g × body wt. in kg
- % ID/g normalized for body weight, Rest of cerebrum ([1]; 30 min p.i.): 0.041 ± 0.00 % ID/g × body wt. in kg
- % ID/g normalized for body weight, Spleen + Pancreas ([1]; 30 min p.i.): 0.11 ± 0.01 % ID/g × body wt. in kg
- % ID/g normalized for body weight, Striatum ([1]; 30 min p.i.): 0.125 % ID/g × body wt. in kg and 0.125 ± 0.01 % ID/g × body wt. in kg
- % ID/g, Blood ([1]; 30 min p.i.): 0.18 ± 0.03 % ID/g
- % ID/g, Cerebellum ([1]; 30 min p.i.): 0.104 ± 0.005 % ID/g
- % ID/g, Cerebrum + Cerebellum ([1]; 30 min p.i.): 0.151 ± 0.016 % ID/g
- % ID/g, Cerebrum total ([1]; 30 min p.i.): 0.157 ± 0.019 % ID/g
- % ID/g, Cortex ([1]; 30 min p.i.): 0.145 ± 0.026 % ID/g
- % ID/g, Heart ([1]; 30 min p.i.): 0.24 ± 0.04 % ID/g
- % ID/g, Hippocampus ([1]; 30 min p.i.): 0.108 ± 0.013 % ID/g
- % ID/g, Kidneys ([1]; 30 min p.i.): 0.68 ± 0.12 % ID/g
- % ID/g, Liver ([1]; 30 min p.i.): 3.85 ± 0.04 % ID/g
- % ID/g, Lungs ([1]; 30 min p.i.): 0.24 ± 0.02 % ID/g
- % ID/g, Rest of cerebrum ([1]; 30 min p.i.): 0.149 ± 0.019 % ID/g
- % ID/g, Spleen + Pancreas ([1]; 30 min p.i.): 0.40 ± 0.02 % ID/g
- % ID/g, Striatum ([1]; 30 min p.i.): 0.458 ± 0.041 % ID/g
- radioactivity concentration, the other brain regions (than striatum) ([1]; 30 min p.i.): ≤ 0.040 % ID/g corrected for body weight
- striatum/blood ratio (from % ID/g normalized for body weight) ([1]; 30 min p.i.): 2.61
- striatum/cerebellum ratio (from % ID/g normalized for body weight) ([1]; 30 min p.i.): 4.38
- striatum/hippocampus ratio (from % ID/g normalized for body weight) ([1]; 30 min p.i.): 4.25
- peak (maximum) striatum-to-cerebellum ratio ([2]; baseline microPET): 4.4
- time of peak striatum-to-cerebellum ratio ([2]; baseline microPET): about 6 min p.i.
- time until which peak striatum-to-cerebellum ratio remained ([2]; baseline microPET): about 13 min p.i.
- BP (binding potential) at baseline ([2]; simplified reference tissue model, cerebellum as reference): 2.5
